pEC50, pIC50: −log10 of the molar value. “Also recorded” adds a separate entry of the source.
How the values were obtained:
5-HT1A receptor = target: T1, 5-HT1A receptor (Rattus norvegicus, UniProt P19327); experiment: Functional 5-HT1A receptor [35S]GTPγS assay (agonist mode); type: biochemical; details: [35S]GTPγS, rat hippocampus homogenate;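 also: male Sprague-Dawley rat hippocampal membranes incubated 90 min at 37 °C, bound label counted by scintillation after filtration, non-specific binding defined with 100 µM unlabeled GTPγS, one-site curve fit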
T1 construct: 15 μg/mL of hippocampus homogenate was incubated in triplicate with 0.8 nM; from tissue; host or cells: rat hippocampus homogenate
T1 sequence (P19327 1-422): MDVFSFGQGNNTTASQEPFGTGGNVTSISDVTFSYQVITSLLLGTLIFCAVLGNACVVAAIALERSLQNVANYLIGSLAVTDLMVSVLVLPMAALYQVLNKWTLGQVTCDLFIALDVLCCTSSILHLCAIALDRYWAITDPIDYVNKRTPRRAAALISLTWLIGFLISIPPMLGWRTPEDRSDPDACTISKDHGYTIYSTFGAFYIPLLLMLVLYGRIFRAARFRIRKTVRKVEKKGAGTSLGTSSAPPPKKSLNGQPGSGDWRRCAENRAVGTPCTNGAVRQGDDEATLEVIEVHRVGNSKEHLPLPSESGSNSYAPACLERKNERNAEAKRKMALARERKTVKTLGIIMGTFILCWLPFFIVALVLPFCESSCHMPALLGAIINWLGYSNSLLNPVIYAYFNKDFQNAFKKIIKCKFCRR

D2 receptor = target: T2, D2 receptor (Rattus norvegicus, UniProt P61169); experiment: Functional D2 receptor [35S]GTPγS assay (antagonist mode vs dopamine; basal for agonism); type: biochemical; details: against 40 µM dopamine, rat striatal homogenate; read-out: D2 receptor antagonistic activity IC50 (95% CI);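 also: [35S]GTPγS binding counted by scintillation after 60 min at 30 °C, nonspecific binding defined with 100 µM unlabeled GTPγS, inhibition curves fitted by one-site nonlinear regression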
T2 construct: 15μg/mL of striatal homogenate was incubated in triplicate; from tissue; host or cells: rat striatum homogenate

mice [1] = experiment: Forced swim test (FST, Porsolt's test); type: in vivo, mouse; details: 60 min before the test
Experimental: The experiments were carried out, in the Experimental Medicine Center of Medical University of Lublin, on six-week-old naive male Swiss mice, weighing 24–30 g. The mice were housed in cages, five individuals per cage in an environmentally controlled rooms (ambient temperature 22 ± 1 °C; relative humidity 50–60%; 12 h light/dark cycle, lights on at 8:00). Standard laboratory food(LSM-Agropol-Motycz, Lublin, Poland) and filtered water were available ad libitum. All the experimental procedures were carried out, according to the National Institute of Health Guidelines for the Care and Use of Laboratory Animals and to the European Community Council Directive for the Care and Use of Laboratory Animals of 22 September 2010 (2010/63/EU) and approved by the Local Ethics Committee for Animal Experimentation in Lublin. The investigated compounds (Norbo-4, Norbo-8, Norbo-10, Norbo-14, Norbo-18 and Norbo-20) in all tests were administered intraperitoneally (i.p.), dissolved in dimethyl sulfoxide (DMSO, final concentration of 0.1%) and then diluted by aqueous solution of 0.5% methylcellulose (tylose) and injected 60 min before the tests. […] All compounds were given in a volume of 10 mL/kg to mice. The control animals received an equivalent volume of the solvent at the respective time before the tests. All the experiments were conducted in the light phase between 09.00 a.m. and 14.00 p.m. The experiments were performed by an observer unaware of the treatment administered. The experiment was carried out according to the method of Porsolt et al.. Mice were individually placed in a glass cylinder (25 cm high; 10 cm in diameter) containing water maintained at 23–25 °C, and were left there for 6 min. The total duration of immobility was recorded during the last 4 min of a 6-min test session. A mouse was regarded as immobile when it remained floating on the water, making only small movements to keep its head above the water.

mice [2] = experiment: Elevated plus-maze test (EPM); type: in vivo, mouse; details: 60 min before the test
Experimental: The experiments were carried out, in the Experimental Medicine Center of Medical University of Lublin, on six-week-old naive male Swiss mice, weighing 24–30 g. The mice were housed in cages, five individuals per cage in an environmentally controlled rooms (ambient temperature 22 ± 1 °C; relative humidity 50–60%; 12 h light/dark cycle, lights on at 8:00). Standard laboratory food(LSM-Agropol-Motycz, Lublin, Poland) and filtered water were available ad libitum. All the experimental procedures were carried out, according to the National Institute of Health Guidelines for the Care and Use of Laboratory Animals and to the European Community Council Directive for the Care and Use of Laboratory Animals of 22 September 2010 (2010/63/EU) and approved by the Local Ethics Committee for Animal Experimentation in Lublin. The investigated compounds (Norbo-4, Norbo-8, Norbo-10, Norbo-14, Norbo-18 and Norbo-20) in all tests were administered intraperitoneally (i.p.), dissolved in dimethyl sulfoxide (DMSO, final concentration of 0.1%) and then diluted by aqueous solution of 0.5% methylcellulose (tylose) and injected 60 min before the tests. […] All compounds were given in a volume of 10 mL/kg to mice. The control animals received an equivalent volume of the solvent at the respective time before the tests. All the experiments were conducted in the light phase between 09.00 a.m. and 14.00 p.m. The experiments were performed by an observer unaware of the treatment administered. The EPM studies were carried out on mice according to the method of Lister. The EPM apparatus was made of plexiglass and consisted of two open (30 × 5 cm) and two enclosed (30 × 5 × 15 cm) arms. The arms extended from a central platform of 5 × 5 cm. The apparatus was mounted on a plexiglass base, raising it 38.5 cm above the floor, and illuminated by a red light. The test consisted of placing a mouse in the center of the apparatus (facing an open arm) and allowing it to freely explore. The number of entries into the open arms and the time spent in these arms were scored for a 5 min test period. An entry was defined as placing all four paws within the boundaries of the arm. The following measures were obtained from the test: the total number of arm entries; the percentage of arm entries into the open arms; and the time spent in the open arms expressed as a percentage of the time spent in both the open and closed arms. Anxiolytic activity was indicated by increases in the time spent in open arms and in the number of open arm entries. The total number of entries into either type of arm was used additionally as a measure of overall motor activity.

T2 sequence (P61169 whole entry): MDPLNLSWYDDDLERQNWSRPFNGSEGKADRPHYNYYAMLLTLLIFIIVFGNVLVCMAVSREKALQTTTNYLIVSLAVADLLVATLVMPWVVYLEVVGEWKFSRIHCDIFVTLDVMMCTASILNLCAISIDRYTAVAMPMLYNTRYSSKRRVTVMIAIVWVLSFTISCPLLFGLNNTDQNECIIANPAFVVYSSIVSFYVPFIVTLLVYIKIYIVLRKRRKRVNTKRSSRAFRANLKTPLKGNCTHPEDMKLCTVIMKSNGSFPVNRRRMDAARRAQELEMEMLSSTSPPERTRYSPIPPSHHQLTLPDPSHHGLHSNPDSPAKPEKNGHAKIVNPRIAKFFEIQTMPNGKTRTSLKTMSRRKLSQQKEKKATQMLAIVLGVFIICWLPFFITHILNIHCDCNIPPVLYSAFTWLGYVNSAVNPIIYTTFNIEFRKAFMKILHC

Cc1cccc(N2CCN(CCCNC(=O)C3CC4C=CC3C4)CC2)c1C (stereo not drawn) [Norbo-4, endo-N-(3-(4-(2,3-dimethylphenyl)piperazin-1-yl)propyl)bicyclo[2.2.1]hept-5-ene-2-carboxamide]
5-HT1A Receptor G-Protein Stimulation Emax (%) ± SEM (5-HT1A receptor): 181 ± 2.4 %
pEC50 (5-HT1A receptor; read-out: 5-HT1A Receptor G-Protein Stimulation EC50 (95% CI)): 6.74
pIC50 (D2 receptor): 4.48
immobility time in FST (mice [1]; 3.75 mg/kg i.p.): significant reduction in immobility time; also recorded: significant reduction of immobility time
immobility time in FST (mice [1]; 15 mg/kg i.p.): significant reduction in immobility time; also recorded: significant reduction of immobility time
immobility time in FST (mice [1]; 30 mg/kg i.p.): significant reduction in immobility time
percentage of time spent in open arms (EPM) (mice [2]; 3.75 mg/kg i.p.): significant increase in time spent in open arms; also recorded: increased the percentage of open arm exploration time
percentage of the open arm entries (EPM) (mice [2]; 15 mg/kg i.p.): increase the percentage of open arm entries
percentage of time spent in open arms (EPM) (mice [2]; 15 mg/kg i.p.): significant increase in time spent in open arms; also recorded: increased the percentage of open arm exploration time

Source: publication PMC9572521, “Synthesis, Docking Studies and Pharmacological Evaluation of Serotoninergic Ligands Containing a 5-Norbornene-2-Carboxamide Nucleus” (Molecules, 2022)
